The results in this text go back to PubChem BioAssay (NCI).

What all share (test): NCI tumour cell line growth inhibition, 48 h
Test [1] has as its system ACHN renal.
Test [2] has as its system HCT-116 colon.
Test [3] deals with HL-60(TB) leukemia.
In test [4] the test system is HOP-92 NSCLC.
Test [5] has as its system HT29 colon.
For test [6], the system named is K-562 leukemia.
Test [7] concerns RPMI-8226 leukemia.
Test [8] relates to SK-MEL-2 melanoma.
In test [9] the test system is SW-620 colon.
The subject of test [10] is U251 CNS.

Each structure is given as a SMILES string.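 A five-concentration, 48-hour dose response in 96-well plates underlies each endpoint, interpolated linearly between surrounding concentrations. The concentration for 50% growth inhibition is given as GI50. TGI marks complete inhibition of growth.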

For the compound `CCOc1cccc(/C=N/NC(=O)c2ccc(Nc3ccnc(C(F)(F)F)c3)cc2)c1O`, the GI50 in test [1] was 728 nM; in [2], 367 nM; in test [3], 1330 nM; in test [4] it was 1010 nM; in test [5] it was 4.38 µM; in [6], 947 nM. Besides, the GI50 is 359 nM in [7], 3.13 µM in test [8], 2010 nM in [9] and 906 nM in [10]. For the same compound, the TGI in test [1] is > 79.1 µM; in test [2], > 71.5 µM; in [3], 5.47 µM; in test [4] it was > 64.2 µM; in [5], > 73.5 µM; in test [6], > 31.6 µM. Also, the TGI in [7] was 20.6 µM; in test [8], > 45.4 µM; in [9] it was > 100 µM; in [10], > 58 µM.
As to `CC1=C(C(=O)Nc2ccc(F)c(Cl)c2)C(c2ccccc2Cl)NC(=S)N1` (stereo not given), the GI50 in [1] was 17500 nM; in test [2] it was 22400 nM; in test [3], 25600 nM; in [4] it was > 50000 nM; in test [6] it was 21700 nM; in test [7] it was 38300 nM. Moreover, the results for the GI50 in [8], in [9] and in test [10] were 26.8 µM, > 50000 nM and 25600 nM, respectively. The TGI in test [1], in [2], in [3], in test [4], in test [6] and in test [7] was > 50 µM in each case. The TGI in test [8], in [9] and in [10] was > 50 µM throughout.
For `O=[N+]([O-])c1ccc(Br)c([N+](=O)[O-])c1`, the GI50 in test [1] was 1800 nM; in [2] it was 2090 nM; in test [3] it was 1410 nM; in test [4], 1940 nM; in test [6], 1980 nM; in test [7], 2360 nM. Moreover, the GI50 in [8] was 3.23 µM; in test [9], 1830 nM; in test [10], 1720 nM. Further, the TGI in test [1] is 3.48 µM; in [2], 5.02 µM; in test [3] it was 3.54 µM; in test [4] it was 4.02 µM; in test [6], > 23.5 µM; in [7] it was 5.51 µM. Moreover, the TGI in [8] came out at 10.3 µM; in test [9], 4.13 µM; in test [10], 3.29 µM.
As to `COC(=O)Nc1nc2ccc(Oc3ccc(NC(=O)Nc4cccc(C(=O)O)c4)cc3)cc2[nH]1`, the GI50 was 16900 nM in test [1]; 8820 nM in test [2]; 6100 nM in test [3]; > 25000 nM in test [4]; 7.35 µM in test [5]; 6510 nM in test [6]. Further, the GI50 in test [7] is 8030 nM; in [8], 9.24 µM; in [9], 7430 nM; in [10] it was 7350 nM. In addition, the TGI is > 25 µM in test [1]; > 25 µM in test [2]; 17.4 µM in [3]; > 25 µM in test [4]; > 25 µM in [5]; > 25 µM in test [6]. The TGI in test [7], in [8], in test [9] and in test [10] was > 25 µM throughout.
Regarding `CC[C@@H](C(=O)[C@@H](C)[C@@H](O)[C@H](C)[C@@H]1O[C@@H]([C@@H](CC)C(=O)O)CC[C@@H]1C)C1O[C@]2(C=CC(=O)[C@]3(CC[C@@](C)([C@H]4CC[C@](O)(CC)[C@H](C)O4)O3)O2)[C@H](C)C[C@@H]1C` (stereo not given in full), the GI50 in [1] was 1330 nM; in test [2] it was 690 nM; in test [3], 39.9 nM; in test [4], 1330 nM; in [5], 0.279 µM; in test [6], 371 nM. Also, the GI50 was 86.8 nM in test [7], 1.04 µM in test [8], 827 nM in [9] and 79.1 nM in [10]. The TGI is 14.9 µM in test [1]; 15.3 µM in test [2]; 0.332 µM in test [3]; 8.02 µM in test [4]; 16.2 µM in [5]; > 27.4 µM in test [6]. The TGI in test [7] amounted to 4.81 µM; in [8], 7.03 µM; in [9], 12.8 µM; in [10], 13.3 µM.
On to `COc1ccc(C(=O)C(c2ccc(OC)cc2)C2(O)C(=O)Nc3ccccc32)cc1` (stereo not given), for which the TGI in test [1], in [2], in test [3], in test [4], in test [5] and in [6] was > 100 µM in each case. Also, the TGI in test [7], in test [8], in test [9] and in test [10] was > 100 µM in each case.
Take `COc1ccc2c(c1)c(-c1ccc(-c3cn(S(=O)(=O)c4ccccc4)c4ccc(OC)cc34)s1)cn2S(=O)(=O)c1ccccc1`: the GI50 in [1] is > 100000 nM; in test [2], > 100000 nM; in [3] it was > 100000 nM; in test [4] it was > 100000 nM; in [5], > 100 µM; in test [6], > 100000 nM. Moreover, the GI50 was > 100000 nM in [7], > 100 µM in test [8], > 100000 nM in test [9] and > 100000 nM in test [10]. The TGI in test [1], in test [2], in test [3], in [4], in [5] and in test [6] was > 100 µM in each case. Besides, the TGI in test [7], in test [8], in test [9] and in [10] was > 100 µM each time.
For the compound `COc1cc(O)c2c(O)c3c(c4c2c1[C@]1(C4)C(C)=CCCC1(C)C)[C@H](O)[C@@]1(O)CC(=O)C(C(N)=O)=C(O)[C@@]1(O)C3=O`, the TGI in [1] turned out to be 1.19 µM; in test [2], 1.3 µM; in test [3], 0.485 µM; in [4], 1.6 µM; in test [5], 1.08 µM; in test [6], 1.52 µM. Further, the TGI in test [7] came out at 1.18 µM; in test [8], 0.695 µM; in test [9] it was 1.2 µM; in test [10], 1.17 µM.
For `O=C(O)C(CP(=O)(O)O)=C(Cl)Cl`, the TGI in [1], in test [2], in [3], in test [4], in [5] and in test [7] was > 100 µM throughout. Further, the TGI in [8], in test [9] and in test [10] was > 100 µM throughout.
